# Reference: patent publication US20260234188A1, “CHEMOKINE-BINDING PEPTIDES” (Oxford University Innovation Limited, priority 2022, published 2026)
# Entries after “also recorded” stand apart in the source; their conditions may differ.
# System: panel of up to 42 human chemokines
# Assay: Phage-display next generation sequencing screen of overlapping hexadecapeptide libraries, chemokines displayed on streptavidin beads;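 also: chemokine listed when log2 fold enrichment exceeds 5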
# Format: binding
# Settings: log2E greater than 5, chemokines named by first part of UniProt Entry Name, peptides binding complement C5a (control) excluded
# Method in brief: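 Phage-display libraries of 55662 overlapping hexadecapeptides from tick and viral chemokine-binding proteins, human chemokines and chemokine receptors screened against up to 42 human chemokines, with hits found by next-generation sequencing. Peptides mapped to parent-protein position with log2 fold enrichment; regions of interest where cumulative residue log2 E exceeds the 95% upper CI of the protein median.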
row,Substance,Chemokines Bound
1,EB2047 (KSDEYELFTVEYCGTN),"CXL10, CXL11,; also recorded: SDF1, CXL14"
2,EB2053 (KSDVYELFTVEYCGTN),"CXL10, CXL11,; also recorded: CXL13"
3,EB2359 (NDKKVGLCLSTEYTDF),"CXL10, CXL11,; also recorded: SDF1, CXL14"
4,EB2905 (SACSGDCVCVHRDNEP),"CXL10, CXL11, and SDF1"
5,EB3085 (SGLCLSTTYIDFSEYG),"CXL10, CXL11,; also recorded: SDF1, CXL14"
6,EB3094 (SGNCTCYHEDGKKVGL),"CXL10, CXL11, and SDF1"
7,EB3974 (VGLCLSTEYTDFSEYP),"CXL10, SDF1,; also recorded: CXL14"
8,EB3975 (VGLCLSTEYTDFTKFP),"CXL10, CXL11,; also recorded: SDF1, CXL14"
9,EDDYTAYAPLTCYFTN [HD842],"CCL1, CCL17, and CCL4, CCL5, and CCL8"
10,EEEDDYTAYAPLTCYF [HD7],"CCL1, CCL11, and CCL15, CCL17, and CCL18, CCL20, and CCL22, CCL3, and CCL4, CCL5, and CCL8"
11,LEEEDDYTAYAPLTCY [HD2134],"CCL1, CCL11, and CCL15, CCL17, and CCL18, CCL22, and CCL4, CCL5, and CCL8"
12,LTDGTACYVVERKVWD [HD2313],"CCL19, CCL20,; also recorded: CCL28"
13,TDGTACYVVERKVWDR [HD3838],"CCL19, CCL2,; also recorded: CCL20, CCL28"
14,VP485 (AMMLSLLIAGMSLMLG),"CCL11, CCL25, and CCL28, CCL5, and CXL11, CXL14, and IL8"
15,VP988 (CIILLVYVYATFATKG),"CCL1, CCL8,; also recorded: X3CL1, CXL10,; also recorded: CXL11"
16,VP1485 (DLAGLDSLTSPVYVMA),"CCL20, X3CL1, and SDF1"
17,VP3426 (GSMMLSLLIAGMSLML),"CCL2, CCL5, and X3CL1, CXL10, and IL8"
18,VP4048 (IILLVYVYATFATKGI),"CCL1, CCL5,; also recorded: CCL8, X3CL1,; also recorded: CXL10, CXL11,; also recorded: CXL13, IL8"
19,VP4071 (IKAESKGSELILLDPP),"CCL17, CCL20,; also recorded: CCL22"
20,VP5438 (LIKAAILLLAGGLAES),"CCL17, CCL20,; also recorded: CCL25, CCL28,; also recorded: CCL5, CXL10"
21,VP6154 (MKSVLYLYILFLSCII),"CCL1, X3CL1, and CXL10, CXL11, and IL8"
22,VP6289 (MVAVALYAYGLAFRLM),"CCL1, CCL11,; also recorded: CCL15, CCL17,; also recorded: CCL19, CCL2,; also recorded: CCL20, CCL22,; also recorded: CCL25, CCL28,; also recorded: CCL5, CXL10,; also recorded: SDF1, IL8"
23,VP6307 (MYSLVFVILMCIPFSF),"X3CL1, CXL11,; also recorded: CXL13, IL8"
24,VP7819 (RLEELYLTVASMFERL),"CCL1, CCL11,; also recorded: CCL17, CCL19,; also recorded: CCL2, CCL22,; also recorded: CCL28, CXL10"
25,VP10866 (VNASIAWFFDFGACRM),"X3CL1, CXL10,; also recorded: CXL11"
26,VP11559 (YLYILFLSCIIINGRD),"CXL10, CXL11,; also recorded: CXL13, IL8"
27,VP11669 (YSLVFVILMCIPFSFQ),"X3CL1, CXL10,; also recorded: CXL11, IL8"
